Test results taken from paper PMC10663540, “Structure-based discovery of dual pathway inhibitors for SARS-CoV-2 entry” (Nature Communications, 2023).
“And” between values parts separate entries of the source, which are not always exact repeats. Equal entries are not always repeated. Where two headings read alike, the source gives them in different places.

Tests used:
[1] = system: SARS-CoV-2 Omicron BA.2 variant; experiment: microbe, parasite or virus in culture; assay type: cell-based; conditions: for EC50: Severe acute respiratory syndrome coronavirus 2
SARS-CoV-2 Delta variant = experiment: microbe, parasite or virus in culture; assay type: cell-based
[2] = Calu-3, Omicron BA.2, […], read-out: Antiviral efficacy EC50 (95% CI)
[3] = Calu-3, Omicron BA.2, one representative replicate, before reprocessing, read-out: EC50, original manuscript version
[4] = Severe acute respiratory syndrome coronavirus 2, Calu-3; read-out: Antiviral efficacy EC50 (95% CI)
[5] = Calu-3; 0.0012207 μM; replicates
[6] = Calu-3; 0.00488281 μM; replicates
[7] = Calu-3; 0.0195312 μM; replicates
[8] = Calu-3; 0.078125 μM; replicates
[9] = Severe acute respiratory syndrome coronavirus 2, Calu-3, read-out: Antiviral efficacy EC50 (95% CI)
[10] = Severe acute respiratory syndrome coronavirus 2, Calu-3, read-out: Inhibition: Delta

## CN1CCN(C(=O)N[C@@H](Cc2ccccc2)C(=O)N[C@H](/C=C/S(=O)(=O)c2ccccc2)CCc2ccccc2)CC1 [K777]
[1]; Calu-3, 0.00457247 μM, rep1-rep2
  Inhibition: Omicron BA.2: -0.32% and 3.09%
[1]; Calu-3, 0.123457 μM, rep1-rep2
  Inhibition: Omicron BA.2: 90.17%
[1]; Calu-3, 0.37037 μM, rep1-rep2
  Inhibition: Omicron BA.2: 90.95%
[1]; Calu-3, 1.11111 μM, rep1-rep2
  Inhibition: Omicron BA.2: 85.59%
[1]; Calu-3, 3.33333 μM, rep1-rep2
  Inhibition: Omicron BA.2: 91.43%
[1]; Calu-3, 10 μM, rep1-rep2
  Inhibition: Omicron BA.2: 91.43%
[1]; Severe acute respiratory syndrome coronavirus 2, Calu-3, Calu-3, 0.123457 μM, rep1-rep2
  inhibition at 0.123457 µM: 70.6%
[1]; Severe acute respiratory syndrome coronavirus 2, Calu-3, Calu-3, 0.37037 μM, rep1-rep2
  inhibition at 0.37037 µM: 87.7%
[1]; Severe acute respiratory syndrome coronavirus 2, Calu-3, Calu-3, 1.11111 μM, rep1-rep2
  inhibition at 1.11111 µM: 97.1%
[1]; Severe acute respiratory syndrome coronavirus 2, Calu-3, Calu-3, 3.33333 μM, rep1-rep2
  inhibition at 3.33333 µM: 98%
[1]; Severe acute respiratory syndrome coronavirus 2, Calu-3, Calu-3, 10 μM, rep1-rep2
  inhibition at 10 µM: 99.2%
[1]; [2]
  EC50: 14 nM
[1]; [3]
  EC50: 77.7 nM
SARS-CoV-2 Delta variant; Calu-3; 0.00256 μM; replicates
  Inhibition: Delta: -6.46e-6% and 5.80% and -22.49%
SARS-CoV-2 Delta variant; Calu-3; 0.0128 μM; replicates
  Inhibition: Delta: 16.53% (2×) and 0.45%
SARS-CoV-2 Delta variant; Calu-3; 0.064 μM; replicates
  Inhibition: Delta: 24.66% (2×) and 0.45%
SARS-CoV-2 Delta variant; Calu-3; 8 μM; replicates
  Inhibition: Delta: 82.03%
SARS-CoV-2 Delta variant; Calu-3; 40 μM; replicates
  Inhibition: Delta: 97.04%
SARS-CoV-2 Delta variant; Severe acute respiratory syndrome coronavirus 2, Calu-3, Calu-3; 8 μM; replicates; read-out: Inhibition: Delta
  inhibition at 8 µM: 85.5%
SARS-CoV-2 Delta variant; Severe acute respiratory syndrome coronavirus 2, Calu-3, Calu-3; 40 μM; replicates; read-out: Inhibition: Delta
  inhibition at 40 µM: 98%
SARS-CoV-2 Delta variant; [4]
  EC50: 638 nM

## CC(C)(NS(=O)(=O)c1ccc2c(Cl)cnc(N=C(N)N)c2c1)C(=O)O [UK-371804]
SARS-CoV-2 Delta variant; [5]
  Inhibition: Delta: -13.87% and -11.09%
SARS-CoV-2 Delta variant; [6]
  Inhibition: Delta: -7.79% and -36.72%
SARS-CoV-2 Delta variant; [7]
  Inhibition: Delta: -13.87% and -11.09%
SARS-CoV-2 Delta variant; [8]
  Inhibition: Delta: 5.76%
SARS-CoV-2 Delta variant; Calu-3; 0.3125 μM; replicates
  Inhibition: Delta: 29.88% and 14.57%
SARS-CoV-2 Delta variant; Calu-3; 1.25 μM; replicates
  Inhibition: Delta: 77.84%
SARS-CoV-2 Delta variant; Calu-3; 5 μM; replicates
  Inhibition: Delta: 90.58%
SARS-CoV-2 Delta variant; Calu-3; 20 μM; replicates
  Inhibition: Delta: 90.58%
SARS-CoV-2 Delta variant; Calu-3; Delta
  Selectivity index (SI = CC50/EC50): 405
SARS-CoV-2 Delta variant; Severe acute respiratory syndrome coronavirus 2, Calu-3, Calu-3; 0.078125 μM; replicates
  inhibition at 0.078125 µM: 7.48%
SARS-CoV-2 Delta variant; Severe acute respiratory syndrome coronavirus 2, Calu-3, Calu-3; 1.25 μM; replicates; read-out: Inhibition: Delta
  inhibition at 1.25 µM: 77.3%
SARS-CoV-2 Delta variant; Severe acute respiratory syndrome coronavirus 2, Calu-3, Calu-3; 5 μM; replicates; read-out: Inhibition: Delta
  inhibition at 5 µM: 88.6%
SARS-CoV-2 Delta variant; Severe acute respiratory syndrome coronavirus 2, Calu-3, Calu-3; 20 μM; replicates; read-out: Inhibition: Delta
  inhibition at 20 µM: 93%
SARS-CoV-2 Delta variant; [4]
  EC50: 425 nM

## CCOC(=O)c1ccc(OC(=O)CCCCCNC(=N)N)cc1 [Gabexate]
SARS-CoV-2 Delta variant; [5]
  Inhibition: Delta: 14.57% and 29.88%
SARS-CoV-2 Delta variant; [6]
  Inhibition: Delta: -54.36% and -37.95%
SARS-CoV-2 Delta variant; [7]
  Inhibition: Delta: -64.93% and -37.95%
SARS-CoV-2 Delta variant; [8]
  Inhibition: Delta: 31.59% and -7.79%
SARS-CoV-2 Delta variant; Calu-3; 0.3125 μM; replicates
  Inhibition: Delta: 39.67%
SARS-CoV-2 Delta variant; Calu-3; 1.25 μM; replicates
  Inhibition: Delta: -34.59% and 12.43%
SARS-CoV-2 Delta variant; Calu-3; 5 μM; replicates
  Inhibition: Delta: 64.87% and -37.95%
SARS-CoV-2 Delta variant; Calu-3; 20 μM; replicates
  Inhibition: Delta: -11.09% and 39.67%
SARS-CoV-2 Delta variant; Calu-3; Delta
  inhibitory efficacy (in words): negligible
SARS-CoV-2 Delta variant; Severe acute respiratory syndrome coronavirus 2, Calu-3, Calu-3; 0.3125 μM; replicates; read-out: Inhibition: Delta
  inhibition at 0.3125 µM: 53.9%
SARS-CoV-2 Delta variant; [4]
  EC50: > 20000 nM

## N=C(N)c1ccc2cc(OC(=O)c3ccc(N=C(N)N)cc3)ccc2c1 [Nafamostat]
SARS-CoV-2 Delta variant; 0.00128 µM
  Inhibition: Delta: -1.10% and 5.80% and -6.46e-6%
SARS-CoV-2 Delta variant; 20 µM
  Inhibition: Delta: 99.61%
SARS-CoV-2 Delta variant; [9]
  EC50: 26.3 nM
SARS-CoV-2 Delta variant; [10]
  inhibition at 0.8 µM: 98.8%
  inhibition at 4 µM: 98.6%
  inhibition at 20 µM: 99.8%
  inhibition at […]: 90.6% and 87.8%

## CN(C)C(=O)COC(=O)Cc1ccc(OC(=O)c2ccc(NC(=N)N)cc2)cc1 [Camostat]
SARS-CoV-2 Delta variant; 0.078125 µM
  Inhibition: Delta: 31.59% and 52.79%
SARS-CoV-2 Delta variant; 0.3125 µM
  Inhibition: Delta: 64%
SARS-CoV-2 Delta variant; 1.25 µM
  Inhibition: Delta: 96.40%
SARS-CoV-2 Delta variant; 5 µM
  Inhibition: Delta: 92.99%
SARS-CoV-2 Delta variant; 20 µM
  Inhibition: Delta: 91.24%
SARS-CoV-2 Delta variant; [9]
  EC50: 109 nM
SARS-CoV-2 Delta variant; [10]
  inhibition at 0.3125 µM: 53.9%
  inhibition at 1.25 µM: 95.4%
  inhibition at 5 µM: 92.4%
  inhibition at 20 µM: 88.9%

## CCOC(=O)C1OC1C(=O)NC(CC(C)C)C(=O)NCCC(C)C (centres unmarked) [E64d]
[1]; 0.0411523 µM
  Inhibition: Omicron BA.2: -1.22%
[1]; 0.123457 µM
  Inhibition: Omicron BA.2: 20.89% and 27.12%
[1]; 0.37037 µM
  Inhibition: Omicron BA.2: 68.35% and 58.49%
[1]; 1.11111 µM
  Inhibition: Omicron BA.2: 89.97% and 78.59%
[1]; 3.33333 µM
  Inhibition: Omicron BA.2: 93.67% and 90.37%
[1]; 10 µM
  Inhibition: Omicron BA.2: 97.22% and 98.95%
[1]; [2]
  EC50: 240 nM
[1]; [3]
  EC50: 227 nM

## NC(N)=Nc1ccc(C(=O)OCCN2CCN(C(=O)N[C@@H](Cc3ccccc3)C(=O)N[C@H](/C=C/S(=O)(=O)c3ccccc3)CCc3ccccc3)CC2)cc1 [212-148]
[1]; 212-148 0.00256 μM, Fig. 5e
  Inhibition: BA.2/Calu-3: 7.11%
[1]; 212-148 0.064 μM, Fig. 5e
  Inhibition: BA.2/Calu-3: 29.70% and 52.65%
[1]; 212-148 8 μM, Fig. 5e
  Inhibition: BA.2/Calu-3: 88.58%
[1]; Calu-3, Omicron BA.2
  Selectivity index (SI = CC50/EC50): 5,391
[1]; Severe acute respiratory syndrome coronavirus 2, Calu-3, 212-148 8 μM, Fig. 5e
  inhibition at 8 µM: 85.9%
[1]; Severe acute respiratory syndrome coronavirus 2, Calu-3, 212-148 40 μM, Fig. 5e
  inhibition at 40 µM: 99.4%
[1]; [2]
  EC50: 64.4 nM
SARS-CoV-2 Delta variant; 212-148 8 μM; Fig. 5e
  Inhibition: Delta/Calu-3: 89.60% and 87.76%
SARS-CoV-2 Delta variant; 212-148 40 μM; Fig. 5e
  Inhibition: Delta/Calu-3: 98.01%
SARS-CoV-2 Delta variant; Calu-3; Delta
  Selectivity index (SI = CC50/EC50): 1,476
SARS-CoV-2 Delta variant; Calu-3; delta strain or omicron strain BA.2 (Fig. 5e)
  block of viral replication in TCID50 assay (in words): completely blocked
SARS-CoV-2 Delta variant; Severe acute respiratory syndrome coronavirus 2, Calu-3, 212-148 8 μM; Fig. 5e; read-out: Inhibition: Delta/Calu-3
  inhibition at 8 µM: 85.5%
SARS-CoV-2 Delta variant; Severe acute respiratory syndrome coronavirus 2, Calu-3, 212-148 40 μM; Fig. 5e; read-out: Inhibition: Delta/Calu-3
  inhibition at 40 µM: 96.1%
SARS-CoV-2 Delta variant; Severe acute respiratory syndrome coronavirus 2, Calu-3, 212-148 200 μM; Fig. 5e
  inhibition at 200 µM: 100%
SARS-CoV-2 Delta variant; [4]
  EC50: 235 nM
